Assay [1] concerns 8-oxo-dG staining in the PFC of NVHL rats. Put plainly: 8-oxo-dG labeling (DNA oxidation) in PFC of NVHL rats. The class given is in vivo, Sprague-Dawley rats. The text has this: To assess oxidative stress, DNA oxidation with 8-oxo-7,8-dihydro-20-deoxyguanine (8-oxo-dG) labeling was quantified. […] 3-NT indicates nitration of proteins due to oxidative and nitrosative stress (Radi, 2004), and its increase in NVHL rats was prevented by NAC treatment during development (as shown in FIGS. 9A and 9B). […] A possible explanation for the levels of oxidative stress detected in the adult PFC following an NVHL is the reduced glutamatergic input from ventral hippocampus during development, as blocking NMDA receptors induces oxidative stress in PVI (Behrens et al., 2007).
To determine the types of interneurons expressing oxidative stress in NVHL rats, 8-oxo-dG with PV, calbindin (CB) and calretinin (CR) was co-labeled. […] About 50% of PVI were co-labeled with 8-oxo-dG, indicating oxidative stress is pervasive in this cell population. A marker of PVI maturation is Wisteria Floribunda agglutinin (WFA), a lectin that recognizes the perineuronal nets (PNN) enwrapping mature cortical PVI. […] PVI may be highly exposed to increased oxidative stress because they make up the majority of fast-spiking interneurons and their high energy metabolism may generate more reactive oxygen species than non-fast spiking neurons.
Animals: Timed-pregnant Sprague-Dawley rats were obtained at gestational days 13-15 from Charles River (Wilmington, MA) and were individually housed with free access to food and water in a temperature- and humidity-controlled environment with a 12:12h light/dark cycle (lights on at 7:00 AM). When pups reached P5, half of the dams received NAC in their drinking water. Pups were left undisturbed until P7-9 when healthy offspring were randomly separated and received either NVHL or sham surgery. At P21, male and female pups were either transcardially perfused with 4% paraformaldehyde for immunocytochemistry or weaned and housed in groups of two to three, counterbalanced across lesion status. NAC treatment lasted throughout adolescence until P50. After reaching adulthood (>P60), animals were either perfused with 4% paraformaldehyde for immunocytochemistry, perfused with artificial cerebrospinal fluid (aCSF) for slice electrophysiology, utilized for in vivo intracellular recordings, or tested for PPI or MMN.
Neonatal ventral hippocampal lesion surgery: Between P7 and P9, pups (15-20 g) received either an excitotoxic lesion of the ventral hippocampus (NVHL) or sham procedure, as previously described (Chambers and Lipska, 2011). Pups were anesthetized with hypothermia and secured to a Styrofoam platform attached to a stereotaxic frame (David Kopf Instruments, Tujunga, CA). […]

Assay [2] concerns PFC pyramidal neurons of NVHL rats. Put plainly: In vivo intracellular recordings: PFC pyramidal cell firing after VTA stimulation in NVHL rats. Details: species or system Sprague-Dawley rats. The settings on record: anesthetized adult NVHL rats, juvenile treatment. On the procedure:
The abnormal dopamine modulation of PFC function in NVHL rats is also observed in vivo. In vivo intracellular recordings were performed in 38 pyramidal neurons from adult rats (n=9 SHAM (placebo), n=5 NVHL, and n=7 NAC-treated NVHL). […] Up states occurred at a frequency of 0.6±0.1 Hz with a duration of 523.6±24.7 ms. The majority of cells (n=21) fired spontaneously at a rate of 2.1±0.7 Hz.
Antioxidant pretreatment regimen: NAC (BioAdvantexPharma, Mississauga, Ontario, Canada) was administered in the drinking water at 900 mg/l. NAC treatment started at P5 or at P35, and previous work in mice has shown that NAC consumed by the dam is transmitted to the pups through her milk (das Neves Duarte et al., 2012). NAC treatment ended at P50. Fresh solutions were prepared every 2-3 days. Ebselen (Sound Pharmaceuticals Inc., Seattle, WA) was administered i.p. 5 days a week starting at P35 until the day of PPI testing (P60). Stock ebselen solution (20 mg/ml DMSO, frozen aliquots) was diluted 1:5 in sterile water and administered at a dose of 10 mg/kg. Control animals received an equivalent concentration of DMSO diluted 1:5 in water. […]
Microelectrodes were advanced through the medial PFC until a neuron was impaled. […] Firing was measured in the 500 ms epoch following the last VTA pulse in all sweeps, and compared among experimental groups. […]

“Also recorded” adds a separate entry of the source.

Consider `CC(=O)N[C@@H](CS)C(=O)O` [NAC, N-acetyl cysteine], for which the “effect on 8-oxo-dG labeling in PV interneurons” value in assay [1] (NVHL rats, developmental treatment) is reported as “prevented”. Also, the “effect on increase in 8-oxo-dG staining in PFC” value in assay [1] (P21 NVHL rats, drinking water 900 mg/l from P5) is recorded as “completely prevented”. Besides, the “effect on increase in 8-oxo-dG in PFC” value in assay [1] (P61 NVHL rats, drinking water 900 mg/l, P5 to P50) was “prevented”. Also, in assay [1] (adult NVHL rats, juvenile treatment, to levels comparable to control rats), the “multiple markers of oxidative stress” value was “decreased”. The “effect on abnormal increase in pyramidal cell firing after VTA burst stimulation” value in assay [2] is listed as “prevented; also recorded: sparse”.

The values are drawn from patent publication US20240050409A1, “Methods and Compositions for Treating Psychotic Disorders” (SOUND PHARMACEUTICALS INCORPORATED, priority 2014, published 2024).
